Consider 25 compounds from US8946438B2, “Benzamides, production thereof, and use thereof as medicaments” (Boehringer Ingelheim International GmbH, priority 2008, dated 2015).

The experiment addresses p38 MAP-kinase (Homo sapiens, UniProt Q16539). Put plainly: Enzymatic assay: inhibition of p38 MAP-kinase (phosphorylation of GST-tagged ATF2, chemoluminescence bead readout). It is filed as biochemical. The note with it: inhibitor 1 μM; activated p38 MAP-kinase 1 nM; 4 h preincubation; ATP 100 μM; ATF2 10 nM; read-out: % inhibitory effect at 1 μM. The protocol: In this, the amount of a substrate phosphorylated by the kinase is quantified. The test is carried out as follows:
The kinase reaction is carried out in the presence of HEPES (20 mM, pH 7), MgCl2 (10 mM), DTT (1 mM) and TWEEN20 (0.01%). First, dimethylsulphoxide or inhibitor (final concentration: 1 μM) dissolved in dimethylsulphoxide are placed in a reaction vessel. Then the activated p38 MAP-kinase (final concentration 1 nM) is added and the mixture is incubated for 4 h at ambient temperature. Then a mixture of substrate (GST-tagged ATF2) and ATP is added and everything is incubated together for a further hour (final concentration ATP: 100 μM; final concentration ATF2: 10 nM).
The concentration of phosphorylated ATF2 is quantified by chemoluminescence-induced light emission. For this, a glutathione donor bead (final concentration: 5 μg/ml) which binds to the gluthathione on the ATF2 and phospho-ATF2 antibodies are added to the reaction mixture (final concentration: 3 nM; this binds the phosphate group added by the kinase reaction) to which a Protein A Acceptor Bead (final concentration: 5 μg/ml) binds. These components are dissolved in a buffer which contains 20 mM HEPES pH 7.0, 200 mM NaCL, 80 mM EDTA as well as 0.3% BSA. This reaction mixture is incubated in the dark for 1 hour at ambient temperature. When these beads come physically close, visible light is emitted which is measured in a photometer at 520-620 nm.
To determine the inhibitory activity of the compounds according to the invention a calculation is made to determine the percentage by which the kinase activity is inhibited at a fixed inhibitor concentration of 1 μM. The maximum activity is determined by non-inhibited kinase. The minimum activity or nonspecific background activity is determined using a reaction mixture without kinase. […] Table 2 summarises the degree of inhibition of the enzyme p38 MAP-kinase—as described hereinbefore—of the compounds according to the invention detailed in the section “Preparation of the final compounds”.

p38 MAP-kinase, sequence (Q16539 whole entry): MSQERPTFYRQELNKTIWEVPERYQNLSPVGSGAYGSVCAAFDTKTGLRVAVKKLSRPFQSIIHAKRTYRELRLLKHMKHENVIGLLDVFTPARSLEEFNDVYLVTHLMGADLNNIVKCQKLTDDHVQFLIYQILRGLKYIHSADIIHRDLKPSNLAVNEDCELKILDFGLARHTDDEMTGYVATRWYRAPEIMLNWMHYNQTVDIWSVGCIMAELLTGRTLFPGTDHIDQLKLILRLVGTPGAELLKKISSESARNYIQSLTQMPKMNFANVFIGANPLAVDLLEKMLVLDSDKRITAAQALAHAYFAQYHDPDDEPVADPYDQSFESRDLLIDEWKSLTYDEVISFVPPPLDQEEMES

`COc1c(NC(=O)c2ccc(Cl)c(Oc3ccnc(NC4CCNCC4)n3)c2)cc(C(C)(C)C)cc1NS(C)(=O)=O` [5(28), N-(5-tert-butyl-3-methanesulphonylamino-2-methoxy-phenyl)-4-chloro-3-[2-(piperidin-4-ylamino)-pyrimidin-4-yloxy]-benzamide]: the inhibition at 1 µM is 99%.
Next, `COc1c(NC(=O)c2ccc(Cl)c(Oc3ccnc(CC4CCNCC4)c3)c2)cc(C(C)(C)C)cc1NS(C)(=O)=O` [5(29), N-(5-tert-butyl-3-methanesulphonylamino-2-methoxy-phenyl)-4-chloro-3-(2-piperidin-4-ylmethyl-pyridin-4-yloxy)-benzamide]: 99%; `COc1c(NC(=O)c2ccc(Cl)c(Oc3ccnc(CC4CCNCC4)n3)c2)cc(C(C)(C)C)cc1NS(C)(=O)=O` [5(30), N-(5-tert-butyl-3-methanesulphonylamino-2-methoxy-phenyl)-4-chloro-3-(2-piperidin-4-ylmethyl-pyrimidin-4-yloxy)-benzamide]: 99%; `COc1c(NC(=O)c2ccc(Cl)c(Oc3ccnc(NC4CCNCC4)c3)c2)cc(C(C)(C)C)cc1NS(C)(=O)=O` [5(31), N-(5-tert-butyl-3-methanesulphonylamino-2-methoxy-phenyl)-4-chloro-3-[2-(piperidin-4-ylamino)-pyridin-4-yloxy]-benzamide]: 99.4%.
For `COc1c(NC(=O)c2ccc(Cl)c(Oc3cc(CN4CCNCC4)ncn3)c2)cc(C(C)(C)C)cc1NS(C)(=O)=O` [5(32), N-(5-tert-butyl-3-methanesulphonylamino-2-methoxy-phenyl)-4-chloro-3-(6-piperazin-1-ylmethyl-pyrimidin-4-yloxy)-benzamide], the inhibition at 1 µM stood at 97.9%.
Then `COc1c(NC(=O)c2ccc(Cl)c(Oc3cc(CC4CCNCC4)ncn3)c2)cc(C(C)(C)C)cc1NS(C)(=O)=O` [5(33), N-(5-tert-butyl-3-methanesulphonylamino-2-methoxy-phenyl)-4-chloro-3-(6-piperidin-4-ylmethyl-pyrimidin-4-yloxy)-benzamide], with 99.2%; and `COc1c(NC(=O)c2ccc(Cl)c(Oc3ccnc(CN4CCNCC4)c3)c2)cc(C(C)(C)C)cc1NS(C)(=O)=O` [5(34), N-(5-tert-butyl-3-methanesulphonylamino-2-methoxy-phenyl)-4-chloro-3-(2-piperazin-1-ylmethyl-pyridin-4-yloxy)-benzamide], with 99.1%.
As to `COc1c(NC(=O)c2ccc(Cl)c(Oc3ccnc(CN4CCNCC4)n3)c2)cc(C(C)(C)C)cc1NS(C)(=O)=O` [5(35), N-(5-tert-butyl-3-methanesulphonylamino-2-methoxy-phenyl)-4-chloro-3-(2-piperazin-1-ylmethyl-pyrimidin-4-yloxy)-benzamide], the inhibition at 1 µM came to 98.3%.
With `COc1c(NC(=O)c2ccc(Cl)c(Oc3cc(CN4CCCNCC4)ncn3)c2)cc(C(C)(C)C)cc1NS(C)(=O)=O` [5(36), N-(5-tert-butyl-3-methanesulphonylamino-2-methoxy-phenyl)-4-chloro-3-(6-[1,4]diazepan-1-ylmethyl-pyrimidin-4-yloxy)-benzamide], the inhibition at 1 µM came to 99.3%.
With `COc1c(NC(=O)c2ccc(Cl)c(Oc3ccnc(CN4CCCNCC4)c3)c2)cc(C(C)(C)C)cc1NS(C)(=O)=O` [5(37), N-(5-tert-butyl-3-methanesulphonylamino-2-methoxy-phenyl)-4-chloro-3-(2-[1,4]diazepan-1-ylmethyl-pyridin-4-yloxy)-benzamide], the inhibition at 1 µM stood at 99.3%.
Next, `COc1c(NC(=O)c2ccc(C)c(Oc3ccnc(CC4CCNCC4)n3)c2)cc(C(C)(C)C)cc1S(C)(=O)=O` [5(38), N-(5-tert-butyl-3-methanesulphonyl-2-methoxy-phenyl)-4-methyl-3-(2-piperidin-4-ylmethyl-pyrimidin-4-yloxy)-benzamide]: 98.8%; `COc1c(NC(=O)c2ccc(C)c(Oc3ccnc(CN4CCCNCC4)c3)c2)cc(C(C)(C)C)cc1S(C)(=O)=O` [5(39), N-(5-tert-butyl-3-methanesulphonyl-2-methoxy-phenyl)-3-(2-[1,4]diazepan-1-ylmethyl-pyridin-4-yloxy)-4-methyl-benzamide]: 99.4%.
Then `COc1c(CSC)cc(C(C)(C)C)cc1NC(=O)c1ccc(C)c(Oc2ccnc(CC3CCNCC3)c2)c1` [5(40), N-(5-tert-butyl-2-methoxy-3-methylsulphanylmethyl-phenyl)-4-methyl-3-(2-piperidin-4-ylmethyl-pyridin-4-yloxy)-benzamide], with 99.5%; and `COc1c(CS(C)(=O)=O)cc(C(C)(C)C)cc1NC(=O)c1ccc(C)c(Oc2ccnc(CC3CCNCC3)c2)c1` [5(41), N-(5-tert-butyl-3-methanesulphonylmethyl-2-methoxy-phenyl)-4-methyl-3-(2-piperidin-4-ylmethyl-pyridin-4-yloxy)-benzamide], with 99.6%; and `COc1c(C[S+](C)[O-])cc(C(C)(C)C)cc1NC(=O)c1ccc(C)c(Oc2ccnc(CC3CCNCC3)c2)c1` (stereo not shown) [5(42), N-(5-tert-butyl-2-methoxy-3-methylsulphinylmethyl-phenyl)-4-methyl-3-(2-piperidin-4-ylmethyl-pyridin-4-yloxy)-benzamide], with 99.5%.
Take `COc1c(NC(=O)c2ccc(C)c(Oc3ccnc(CC4CCNCC4)c3)c2)cc(C(C)(C)C)cc1NC(=O)C1CC1` [5(43), N-[5-tert-butyl-3-(cyclopropanecarbonyl-amino)-2-methoxy-phenyl]-4-methyl-3-(2-piperidin-4-ylmethyl-pyridin-4-yloxy)-benzamide]: the inhibition at 1 µM stood at 98.6%.
Next, `Cc1ccc(C(=O)Nc2cc(C(C)(C)C)cc(NS(C)(=O)=O)c2OC(C)C)cc1Oc1ccnc(CC2CCNCC2)c1` [5(44), N-(5-tert-butyl-2-isopropoxy-3-methanesulphonylamino-phenyl)-4-methyl-3-(2-piperidin-4-ylmethyl-pyridin-4-yloxy)-benzamide]: 93.2%; `CCOc1c(NC(=O)c2ccc(C)c(Oc3ccnc(CC4CCNCC4)c3)c2)cc(C(C)(C)C)cc1NS(C)(=O)=O` [5(45), N-(5-tert-butyl-2-ethoxy-3-methanesulphonylamino-phenyl)-4-methyl-3-(2-piperidin-4-ylmethyl-pyridin-4-yloxy)-benzamide]: 99.6%.
On to `COc1c(NC(=O)c2ccc(C)c(Oc3ccnc(CC4CCNCC4)c3)c2)cc(C(C)(C)C)cc1NS(=O)(=O)CC(C)C` [5(46), N-[5-tert-butyl-2-methoxy-3-(2-methyl-propane-1-sulphonylamino)-phenyl]-4-methyl-3-(2-piperidin-4-ylmethyl-pyridin-4-yloxy)-benzamide], for which the inhibition at 1 µM was 99.6%.
In the case of `COc1c(NC(=O)c2ccc(C)c(Oc3ccnc(CC4CCNCC4)c3)c2)cc(C(C)(C)C)cc1NC(=O)C(C)C` [5(47), N-(5-tert-butyl-3-isobutyrylamino-2-methoxy-phenyl)-4-methyl-3-(2-piperidin-4-ylmethyl-pyridin-4-yloxy)-benzamide], the inhibition at 1 µM turned out to be 97.3%.
Next, `COc1c(NC(=O)c2ccc(C)c(Oc3ccnc(CC4CCNCC4)c3)c2)cc(C(C)(C)C)cc1[S+](C)[O-]` (stereo not shown) [5(48), N-(5-tert-butyl-3-methanesulphinyl-2-methoxy-phenyl)-4-methyl-3-(2-piperidin-4-ylmethyl-pyridin-4-yloxy)-benzamide]: 99.4%; `COc1c(NC(=O)c2ccc(C)c(Oc3ccnc(CC4CCNCC4)c3)c2)cc(C(F)(F)F)cc1NS(C)(=O)=O` [5(49), N-(3-methanesulphonylamino-2-methoxy-5-trifluoromethyl-phenyl)-4-methyl-3-(2-piperidin-4-ylmethyl-pyridin-4-yloxy)-benzamide]: 99.2%.
As for `COc1c(NC(=O)c2ccc(C)c(Oc3ccnc(CC4CCNCC4)c3)c2)cc(C(C)(C)C)cc1NS(=O)(=O)C(C)C` [5(50), N-[5-tert-butyl-2-methoxy-3-(propane-2-sulphonylamino)-phenyl]-4-methyl-3-(2-piperidin-4-ylmethyl-pyridin-4-yloxy)-benzamide], the inhibition at 1 µM amounted to 99.6%.
On to `COc1c(NC(=O)c2ccc(C)c(Oc3ccnc(CC4CCCNCC4)c3)c2)cc(C(C)(C)C)cc1NS(C)(=O)=O` (stereo not shown) [5(52), 3-(2-azepan-4-ylmethyl-pyridin-4-yloxy)-N-(5-tert-butyl-3-methanesulphonylamino-2-methoxy-phenyl)-4-methyl-benzamide], for which the inhibition at 1 µM stood at 99.5%.
For `COc1c(NC(=O)c2ccc(C)c(Oc3ccnc(CC4CCCNCC4)n3)c2)cc(C(C)(C)C)cc1NS(C)(=O)=O` (stereo not shown) [5(53), 3-(2-azepan-4-ylmethyl-pyrimidin-4-yloxy)-N-(5-tert-butyl-3-methanesulphonylamino-2-methoxy-phenyl)-4-methyl-benzamide], the inhibition at 1 µM turned out to be 97%.
